Among the data in patent US11639350B2, “Heteroaryldihydropyrimidine derivatives and methods of treating hepatitis B infections” (Janssen Pharmaceutica NV, priority 2018, dated 2023) are EC50 and CC50 values, retold here.

What is called EC50 is the concentration giving half of the maximal effect. A word on the CC50: it is the concentration giving 50% cytotoxicity. Low values mean harm at low concentration, high ones better tolerance by the cells.

Molecules are shown by their SMILES. A value given as a limit tells only on which side of the number the result lay.

For data set [1], the system named is HBV. As to the kind of experiment: HBV inhibitory activity: HBV DNA in the culture medium of HepG2.2.15 cells by q-PCR. In kind it is cell-based. As to conditions: Hepatitis B virus, HepG2.2.15, 144 h, HepG2.2.15 cells, 6 days of compound treatment, HBV DNA in culture medium by q-PCR, highest concentration 10 μM; read-out: EC50. In outline:
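HepG2.2.15 cells in 2% FBS medium, 40,000 per well, treated 6 days with compound (medium refreshed once), eight 3-fold dilutions from 10 μM top. HBV DNA extracted from culture medium and quantified by q-PCR; EC50 averaged over repeats. Cytotoxicity run in parallel at 5,000 cells per well, top 100 μM, giving CC50.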

Data set [2] in a line: Cytotoxicity determination in HepG2.2.15 cells (CCK-8). Format: cell-based. Conditions: human, 6 days of compound treatment, CCK-8, highest concentration 100 μM. In short, it runs like this: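 HepG2.2.15 cells seeded at 5,000 cells/well in 2% FBS medium, incubated overnight at 37° C., then treated 6 days with compounds (8 points, 3-fold dilutions, top 100 μM), medium refreshed once midway. CCK-8 added for 2.5 h; A450 read against 630 nm reference; CC50 calculated, averaged over repeats.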

With `COC(=O)C1=C(C2CCN(C(=O)C3(C(=O)OC)CC3)CC2)NC(c2nccs2)=NC1c1ccc(F)cc1Cl` (stereo not drawn) [Compound 108, Methyl-4-(2-chloro-4-fluorophenyl)-6-(1-(1-(methoxycarbonyl)-cyclopropane-1-carbonyl)piperidin-4-yl)-2-(thiazol-2-yl)-1,4-dihydropyrimidine-5-carboxylate], the EC50 in data set [1] is 77 nM. Half-maximal cytotoxicity in data set [2] (CC50 at 6 days) was put at 26900 nM.

`COC(=O)C1=C(C2CCN(S(C)(=O)=O)CC2)NC(c2nccs2)=NC1c1cccc(F)c1Cl` (stereo not drawn) [Compound 112, Methyl 4-(2-chloro-3-fluorophenyl)-6-(1-(methylsulfonyl)-piperidin-4-yl)-2-(thiazol-2-yl)-1,4-dihydropyrimidine-5-carboxylate]: the EC50 in data set [1] came out at 293 nM. In data set [2], this compound showed a half-maximal cytotoxic concentration (CC50) at 6 days of 43200 nM.

On to `COC(=O)C1=C(C2CCN(S(=O)(=O)CCC(=O)O)CC2)NC(c2nccs2)=NC1c1cccc(F)c1Cl` (stereo not drawn) [Compound 114, 3-((4-(6-(2-Chloro-3-fluorophenyl)-5-(methoxycarbonyl)-2-(thiazol-2-yl)-3,6-dihydro-pyrimidin-4-yl)piperidin-1-yl)sulfonyl)propanoic Acid], for which the EC50 in data set [1] was 40 nM. The CC50 at 6 days in data set [2] is 27500 nM.

Turning to `COC(=O)C1=C(C2CCN(S(=O)(=O)c3cccc(C(=O)O)c3)CC2)NC(c2nccs2)=NC1c1cccc(F)c1Cl` (stereo not drawn) [Compound 118, 3-((4-(6-(2-Chloro-3-fluorophenyl)-5-(methoxycarbonyl)-2-(thiazol-2-yl)-3,6-dihydropyrimidin-4-yl)piperidin-1-yl)sulfonyl)benzoic Acid], the EC50 in data set [1] was 15 nM. Further, in data set [2], the midpoint of cytotoxicity, the CC50 at 6 days, lay at 59100 nM.

Consider `COC(=O)C1=C(C2CCN(C(=O)CO)CC2)NC(c2nccs2)=NC1c1ccc(F)cc1Cl` (stereo not drawn) [Compound 122, Methyl 4-(2-chloro-4-fluorophenyl)-6-(1-(2-hydroxyacetyl)-piperidin-4-yl)-2-(thiazol-2-yl)-1,4-dihydropyrimidine-5-carboxylate], for which the 50% effective concentration (EC50) in data set [1] was found to be 394 nM. For the same compound, it took 5100 nM to reach half-maximal cytotoxicity in data set [2] (CC50 at 6 days).

For the compound `COC(=O)C1=C(C2CCN(C(=O)CNC(=O)OC(C)(C)C)CC2)NC(c2nccs2)=NC1c1ccc(F)cc1Cl` (stereo not drawn) [Compound 129, 6-[1-(2-tert-Butoxycarbonylamino-acetyl)-piperidin-4-yl]-4-(2-chloro-4-fluoro-phenyl)-2-thiazol-2-yl-1,4-dihydro-pyrimidine-5-carboxylic Acid Methyl Ester], the EC50 in data set [1] stood at 55 nM. In addition, the CC50 at 6 days in data set [2] is 28200 nM.

Consider `COC(=O)C1=C(C2CN(S(=O)(=O)c3ccccc3)C2)NC(c2nccs2)=NC1c1ccc(F)cc1Cl` (stereo not drawn) [Compound 130, 6-(1-Benzenesulfonyl-azetidin-3-yl)-4-(2-chloro-4-fluoro-phenyl)-2-thiazol-2-yl-1,4-dihydro-pyrimidine-5-carboxylic acid methyl ester], for which the EC50 in data set [1] is 550 nM. Further, the half-maximal cytotoxic concentration (CC50) at 6 days in data set [2] was more than 10000 nM.

As to `COC(=O)C1=C(C2CCN(S(=O)(=O)C3CC(C)(C(=O)O)C3)CC2)NC(c2nccs2)=NC1c1ccc(F)cc1Cl` (stereo not drawn) [Compound 141, (trans)-3-((4-(6-(2-chloro-4-fluorophenyl)-5-(methoxycarbonyl)-2-(thiazol-2-yl)-3,6-dihydropyrimidin-4-yl)piperidin-1-yl)sulfonyl)-1-methylcyclobutane-1-carboxylic Acid], the EC50 in data set [1] was determined as 51 nM. This compound also yielded a CC50 at 6 days in data set [2] of 30700 nM.

In the case of `CCOC(=O)C1=C(C2CCN(S(=O)(=O)[C@H]3C[C@H](C(=O)O)C3)CC2)NC(c2nccs2)=NC1c1ccccc1Cl` (stereo partly drawn) [Compound 146, (trans)-3-((4-(6-(2-chlorophenyl)-5-(ethoxycarbonyl)-2-(thiazol-2-yl)-3,6-dihydropyrimidin-4-yl)piperidin-1-yl)sulfonyl)cyclobutane-1-carboxylic Acid], in data set [1], the concentration for a half-maximal effect (EC50) was 68 nM. The CC50 at 6 days in data set [2] is 42100 nM.

In the case of `CCOC(=O)C1=C([C@H]2CC[C@H](C(=O)O)CC2)NC(c2nccs2)=NC1c1ccccc1Br` (stereo partly drawn) [Compound 148A, (trans)-4-(6-(2-bromophenyl)-5-(ethoxycarbonyl)-2-(thiazol-2-yl)-3,6-dihydropyrimidin-4-yl)cyclohexane-1-carboxylic Acid], the concentration for a half-maximal effect (EC50) in data set [1] worked out at 97 nM. The midpoint of cytotoxicity in data set [2], the CC50 at 6 days, lay at 29400 nM.

Regarding `CCOC(=O)C1=C([C@H]2CC[C@H](C(=O)O)CC2)NC(c2nccs2)=NC1c1cccc(F)c1Br` (stereo partly drawn) [Compound 150A, (trans)-4-(6-(2-bromo-3-fluorophenyl)-5-(ethoxycarbonyl)-2-(thiazol-2-yl)-3,6-dihydropyrimidin-4-yl)cyclohexane-1-carboxylic Acid], the half-maximal effective concentration (EC50) in data set [1] amounted to 71 nM. The compound also registered a CC50 at 6 days in data set [2] of 28100 nM.

As to `COC(=O)C1=C([C@H]2CC[C@H](C(=O)O)CC2)NC(c2nccs2)=NC1c1cccc(F)c1Br` (stereo partly drawn) [Compound 152A], the EC50 in data set [1] worked out at 92 nM. The midpoint of cytotoxicity in data set [2], the CC50 at 6 days, lay at 39500 nM.

As to `CCOC(=O)C1=C([C@H]2CC[C@H](C(=O)O)CC2)NC(c2nccs2)=NC1c1ccc(F)c(F)c1C` (stereo partly drawn) [Compound 154A], in data set [1], the half-maximal effective concentration (EC50) worked out at 71 nM. For the same compound, the midpoint of cytotoxicity in data set [2], the CC50 at 6 days, lay at 30700 nM.

On to `CCOC(=O)C1=C([C@H]2CC[C@H](C(=O)O)CC2)NC(c2nccs2)=NC1c1ccc(F)cc1Br` (stereo partly drawn) [Compound 156], for which the EC50 in data set [1] is 71 nM. In data set [2], this compound yielded a 50% cytotoxic concentration (CC50) at 6 days of 34900 nM.

In the case of `COC(=O)CCS(=O)(=O)N1CCC(C2=C(C(=O)OC)C(c3ccc(F)c(F)c3Cl)N=C(c3nccs3)N2)CC1` (stereo not drawn) [Compound 157A, Methyl 4-(2-chloro-3,4-difluorophenyl)-6-(1-((3-methoxy-3-oxopropyl)sulfonyl)piperidin-4-yl)-2-(thiazol-2-yl)-1,4-dihydropyrimidine-5-carboxylate], the EC50 in data set [1] turned out to be 85 nM. This compound also displayed a CC50 at 6 days in data set [2] of 80000 nM.

As for `COC(=O)C1=C(C2CCN(S(=O)(=O)c3cn[nH]c3)CC2)NC(c2nccs2)=NC1c1cccc(F)c1Cl` (stereo not drawn) [Compound 158A, methyl 6-(1-((1H-pyrazol-4-yl)sulfonyl)piperidin-4-yl)-4-(2-chloro-3-fluorophenyl)-2-(thiazol-2-yl)-1,4-dihydropyrimidine-5-carboxylate], in data set [1], the EC50 was 9 nM. This compound gave a CC50 at 6 days in data set [2] of 12700 nM.

Take `CCOC(=O)C1=C([C@H]2CC[C@H](C(N)=O)CC2)NC(c2nccs2)=NC1c1ccc(F)cc1Cl` (stereo partly drawn) [Compound 163, (trans)-ethyl 6-(−4-carbamoylcyclohexyl)-4-(2-chloro-4-fluorophenyl)-2-(thiazol-2-yl)-1,4-dihydropyrimidine-5-carboxylate]: the EC50 in data set [1] is 65 nM. Besides, in data set [2], it took 23900 nM to reach half-maximal cytotoxicity (CC50 at 6 days).

As for `COC(=O)C1=C(C2CCN(S(=O)(=O)N3CCOCC3)CC2)NC(c2nccs2)=NC1c1ccc(F)cc1Cl` (stereo not drawn) [Compound 164, Methyl 4-(2-chloro-4-fluorophenyl)-6-(1-(morpholinosulfonyl)piperidin-4-yl)-2-(thiazol-2-yl)-1,4-dihydropyrimidine-5-carboxylate], the 50% effective concentration (EC50) in data set [1] amounted to 58 nM. The compound also displayed a CC50 at 6 days in data set [2] of 57400 nM.

`COC(=O)C1=C(C2CCN(S(=O)(=O)c3cnn(C)c3)CC2)NC(c2nccs2)=NC1c1ccc(F)cc1Cl` (stereo not drawn) [Compound 165, Methyl 4-(2-chloro-4-fluorophenyl)-6-(1-((1-methyl-1H-pyrazol-4-yl)sulfonyl)piperidin-4-yl)-2-(thiazol-2-yl)-1,4-dihydropyrimidine-5-carboxylate]: the EC50 in data set [1] was 12 nM. In data set [2], the CC50 at 6 days was more than 100000 nM.

On to `COC(=O)C1=C(C2CCC(N(C)C(C)=O)C2)NC(c2nccs2)=NC1c1cccc(F)c1Cl` (stereo not drawn) [Compound 170, Methyl 4-(2-chloro-3-fluorophenyl)-6-(3-(N-methylacetamido)cyclopentyl)-2-(thiazol-2-yl)-1,4-dihydropyrimidine-5-carboxylate], for which the half-maximal effective concentration (EC50) in data set [1] amounted to 533 nM. For the same compound, the 50% cytotoxic concentration (CC50) at 6 days in data set [2] stood at 14900 nM.

Regarding `COC(=O)C1=C(C2CCCC(NS(C)(=O)=O)CC2)NC(c2nccs2)=NC1c1ccc(F)cc1Cl` (stereo not drawn) [Compound 190, Methyl 4-(2-chloro-4-fluorophenyl)-6-(4-(methylsulfonamido)-cycloheptyl)-2-(thiazol-2-yl)-1,4-dihydropyrimidine-5-carboxylate], the concentration giving a half-maximal response (EC50) in data set [1] turned out to be 78 nM. The compound further returned a CC50 at 6 days in data set [2] of 15000 nM.

As for `CCOC(=O)C1=C(C2CCN(S(=O)(=O)[C@H]3C[C@H](C(=O)O)C3)CC2)NC(c2c(F)cc(F)cc2F)=NC1c1ccc(F)c(F)c1Cl` (stereo partly drawn) [Compound 195A, (trans)-3-((4-(6-(2-Chloro-3,4-difluorophenyl)-5-(ethoxycarbonyl)-2-(2,4,6-trifluorophenyl)-3,6-dihydropyrimidin-4-yl)piperidin-1-yl)sulfonyl)cyclobutanecarboxylic Acid], the EC50 in data set [1] amounted to 84 nM. The compound also returned a CC50 at 6 days in data set [2] of 43900 nM.

Turning to `CCOC(=O)C1=C(C2CCN(S(=O)(=O)[C@H]3C[C@H](C(=O)O)C3)CC2)NC(c2nccs2)=NC1c1ccc(F)c(F)c1Br` (stereo partly drawn) [Compound 199A, (trans)-3-((4-(6-(2-bromo-3,4-difluorophenyl)-5-(ethoxycarbonyl)-2-(thiazol-2-yl)-3,6-dihydropyrimidin-4-yl)piperidin-1-yl)sulfonyl)cyclobutanecarboxylic Acid], the EC50 in data set [1] was determined as 56 nM. The compound further came in with a CC50 at 6 days in data set [2] of 35800 nM.

Turning to `COC(=O)C1=C(C2CCN(S(=O)(=O)c3nccs3)CC2)NC(c2nccs2)=NC1c1ccc(F)cc1Cl` (stereo not drawn) [Compound 200A, Methyl 4-(2-chloro-4-fluorophenyl)-2-(thiazol-2-yl)-6-(1-(thiazol-2-ylsulfonyl)piperidin-4-yl)-1,4-dihydropyrimidine-5-carboxylate], the concentration giving a half-maximal response (EC50) in data set [1] worked out at 102 nM. In data set [2], the cytotoxic concentration (CC50) at 6 days was more than 100000 nM.
